Results: EP3398599A1, “COMPOSITIONS AND METHODS FOR PROPHYLAXIS AND TREATMENT OF ADDICTIONS” (priority 2009, dated 2010)
Entries after “also recorded” stand apart in the source; their conditions may differ.

Assays:
msP rats [1] = test: Voluntary ethanol intake, acute treatment, free choice between water and 10% alcohol 24 hours a day; format: in vivo; settings: for ethanol intake: 2, 8 and 24 hours
Protocol: The drug was given orally (OS) via gavage procedure in a volume of 1.0 ml/kg. Yohimbine was dissolved in distilled water and was administered intraperitoneally (IP) in a volume of 1.0 ml/kg. […] These drugs were given orally (OS) via gavage procedure in a volume of 1.0 ml/kg. Yohimbina was dissolved in distilled water and was administered intraperitoneally (IP) in a volume of 1.0 ml/kg. GW9662 was prepared in 5% DMSO and 5% TWIN 80 and was given either IP (1 ml/kg) or intacerebroventricularly (ICV, 1 µl/rat). Antalarmin was prepared in 10 % TWIN 80 and was given IP (1 ml/kg). Ondansetron was prepared in acqueous solution and was given IP (1 ml/kg).
(§1) At the beginning of the experiments, msP rats were allowed free choice between water and 10% (v/v) alcohol 24 h/day for at least 15 days. The fluids were offered in graduated drinking tubes equipped with metallic drinking spouts. The position (to the right or left) of alcohol and water drinking tubes was changed daily to avoid the development of side preference. […] Alcohol, water and food intakes were measured.
MsP rats were first trained to drink 10% (w/v) alcohol for 24 hours a day (free choice between water and ethanol). […] Before starting the treatment, rats were trained to gavage administration procedures for three days, during which they received vehicle (distilled water). […] Drinking experiments started at the beginning of the dark cycle. Alcohol, water and food intakes were monitored at 2, 8 and 24 hours after ethanol was made available.
Before starting the treatment, rats were trained to gavage and IP administration procedures for three days. Experiment was conducted in a between subject design (n = 22). […] Drinking experiments started at the beginning of the dark cycle. Alcohol, water and food intakes were monitored at 2, 8 and 24 hours after ethanol was made available.
The experiment was conduced using a within subject counterbalanced Latine square design, where each animal received all drug doses.
The drinking experiments were conducted at the beginning of the dark cycle, and alcohol, water and food intakes were monitored at 2, 8 and 24 hours after ethanol was made available.
(§2) MsP rats were first trained to drink 10% (w/v) alcohol for 24 hours a day (free choice between water and ethanol). […] Rats treated with drug vehicles served as a control. Before starting the treatment, rats were trained to gavage administration for three days, during which they received drugs vehicle (distilled water). […] Drinking experiments started at the beginning of the dark cycle. Alcohol, water, and food intakes were monitored at 2, 8 and 24 hours after ethanol was made available.
as §2, with “water” for “water,”
as §2, with “water” for “water,”
MsP rats were first trained to drink 10% (w/v) alcohol for 24 hours a day (free choice between water and ethanol). […] Rats treated with drug vehicles served as a control. Before starting the treatment, rats were trained to gavage administration for three days, during which they received drugs vehicle (distilled water).

msP rats [2] = test: Voluntary ethanol intake, subchronic (7 days) treatment, alcohol available 24 hours/day; format: in vivo; settings: naltrexone […] IP alone or with pioglitazone 10.0 or 30.0 mg/kg OS, overall p<0.01
Protocol: as §1
Before starting the treatment, rats were trained to gavage administration procedures for three days, during which they received vehicle (distilled water).
(§3) Alcohol, water and food intakes were monitored at 2, 8 and 24 hours. Fluids and food intakes were monitored for three additional days after the end of the drug treatment period.
as §3

msP rats [3] = test: Yohimbine-induced (stress-induced) reinstatement of alcohol seeking; format: in vivo; settings: naltrexone 0.25 and 1.0 mg/kg IP 1 hour before test
msP rats [4] = test: Cue-induced reinstatement of alcohol seeking; format: in vivo; settings: naltrexone, both doses (0.25 and 1.0 mg/kg) one hour before test; p<0.01
human patients = test: Observational study of alcohol abuse in human patients (pioglitazone 30 mg/day or naltrexone 50 mg/day + psychotherapy); format: in vivo; settings: for CDT: mean value of blood tests
From the text: Patients were instructed to record in a personal logbook the number of drinks per day and the time of the day drinks occurred. At the end of the study, the logbooks were returned to the clinical personnel who analyzed the data.
In addition, biochemical parameters to ascertain alcohol detoxification and to measure recovery of physiological functions (i.e., hepatic function) were monitored monthly. Hematological parameters measured included: mean corpuscular volume (MCV); gamma-GT; aspartate aminotransferase (AST); alanine aminotransferase (ALT); and carbohydrate-deficient transferring (CDT). MCV and CDT are biomarkers for ethanol consumption, and GGT, ALT and AST are biomarkers for hepatic functionality.
Data were analyzed by analysis of variance followed by Newman-Keuls post hoc tests when appropriate.

heavy tobacco smokers = test: Pilot study in heavy tobacco smokers (pioglitazone 15-30 mg/daily, varenicline 0.5 to 2.0 mg/day, bupropione); format: in vivo, human; settings: for STAI score (anxiety): over 10 treatment weeks
From the text: […] Patients were instructed to record in a personal logbook the number of cigarettes per day and the time of the day smoking occurred. At the end of the study, the logbooks were returned to the clinical personnel who analyzed the data. Every other week, participants were interviewed and subjected to the Spielberger State-Trait Anxiety Inventory (STAI), the Montgomery Asberg Depression Rating Scale (M.A.D.R.S 10 Item), and to a Visual Analogic Scale (VAS) to measure nicotine craving. During the first month of treatment, every two weeks, ACTH and cortisol levels were also monitored to evaluate HPA activation before and during treatment.

CD mice [5] = test: Morphine-induced analgesic tolerance, tail-flick test; settings: mouse, in vivo
Protocol: All procedures were conducted in adherence to the European Community Council Directive for Care and Use of Laboratory Animals.
Mice were divided into 6 groups. Group 1 (n=8) received drug vehicles (veh/veh). […] Animals were treated twice daily (between 9:00 and 10:00 a.m. and 9:00 and 10:00 p.m.).
Morphine hydrochloride was purchased from Salars (Milano, Italy). Morphine (30 mg/kg) was dissolved in NaCl […] and was injected intraperitoneally (IP) twice a day at the indicated doses in a volume of 0.2 ml per mice. […] It was dissolved in distilled water and was administered per o.s. at the doses of 10 mg/kg and 30 mg/kg in a volume of 0.6 ml per mice.
Two different tests were used to monitor analgesic responses. The tail-flick test was performed 45 min after the morning injection of morphine, and the tail-immersion test was performed 45 min after the evening injection of morphine.
For the tail-flick test, each mouse was gently restrained in a soft tissue pocket, and the tail (1 cm from the tip) was exposed to a hot light beam. Latency for tail-flick was measured with a 6 seconds cut-off time. For the tail-immersion test, each mouse was restrained in a soft tissue pocket, and the distal half of the tail dipped into a water bath set at 52 C°. Latency for removing the tail from the hot water was measured with a 10 seconds cut-off time.

CD mice [6] = settings: mouse, in vivo
[7] = T=0 (beginning of the treatment)

CC[C@@H](C(N)=O)N1CCCC1=O [levetiracetam]
ethanol intake in msP rats in a pilot study (msP rats [1]; levetiracetam 100.0 mg/kg OS): did not reduce ethanol intake | ethanol intake (msP rats [1]; levetiracetam alone 100.0 mg/kg OS, given twice): did not significantly modify ethanol intake

O=C1CC[C@@]2(O)[C@H]3Cc4ccc(O)c5c4[C@@]2(CCN3CC2CC2)[C@H]1O5 [naltrexone]
voluntary ethanol intake (msP rats [2]): significantly reduced | yohimbine-induced reinstatement of alcohol seeking (msP rats [3]): did not significantly reduce the effect of yohimbine | conditioned (cue-induced) reinstatement of alcohol-seeking (msP rats [4]): significantly reduced reinstatement of ethanol seeking; also recorded: significantly reduced cue-induced reinstatement of alcohol-seeking | Depression Scale M.A.D.R.S (mean score values) (human patients; [7]): 19 | Depression Scale M.A.D.R.S (mean score values) (human patients; T=1.1 (month 1, week 1)): 16 | Depression Scale M.A.D.R.S (mean score values) (human patients; T=1.2 (month 1, week 2)): 18 | effect on daily drinks, naltrexone vs pioglitazone (human patients; first two weeks of treatment, P<0.05): more effective than pioglitazone | CDT (human patients; T0): 3.6 | CDT (human patients; T1= 4 weeks): 3.0 | CDT (human patients; T2= 8 weeks): 2.5 | decrease in MCV and CDT (human patients; naltrexone treated patients (NTX), two months): to a lesser extent compared to the pioglitazone group | all the five biomarkers (MCV, GGT, ALT, AST, CDT): difference from controls (psychotherapy alone) (human patients; post hoc tests, P<0.001): statistical difference | anxiety score: difference from controls (human patients; post hoc tests, P<0.001): statistically significant difference | obsessive compulsive score for alcohol (OCDS): decrease, difference from controls (human patients; post hoc tests, P<0.001): statistically significant difference | depression score (MADRS): difference from controls (human patients; post hoc tests, P<0.001 for pioglitazone): not naltrexone | hepatic parameters (GGT, ALT, AST) (human patients; two months of treatment): ameliorated | daily ethanol intake (number of daily drinks) (human patients; vs psychotherapy only): significantly reduced daily ethanol intake | number of abstinence days (human patients; vs psychotherapy only): increased the number of abstinence days

Cc1nccn1CC1CCc2c(c3ccccc3n2C)C1=O (centres unmarked) [ondansetron]
ethanol intake in msP rats in a pilot study (msP rats [1]; ondansetron 1.0 mg/kg IP): did not reduce ethanol intake | ethanol intake (msP rats [1]; ondansetron alone 1.0 mg/kg IP, given twice): did not significantly modify ethanol intake

O=C(Nc1ccccc1)c1cc([N+](=O)[O-])ccc1Cl [GW9662]
ethanol intake per se (msP rats [1]; GW9662 5 µg/rat ICV alone): did not significantly affect ethanol intake per se | pioglitazone-induced reduction of ethanol intake (msP rats [1]; GW9662 5 µg/rat ICV with pioglitazone 30 mg/kg OS): completely prevented the effect of pioglitazone | pioglitazone-induced reduction of ethanol intake (msP rats [1]; GW9662 IP (1.0 and 5.0 mg/kg) with pioglitazone 30 mg/kg OS): blocked the effect of pioglitazone in a dose related manner | ethanol drinking (msP rats [1]; GW9662 alone (1.0 and 5.0 mg/kg IP)): did not modify ethanol drinking

NCC1(CC(=O)O)CCCCC1 [gabapentin]
ethanol intake in msP rats in a pilot study (msP rats [1]; gabapentin 60.0 mg/kg OS): did not reduce ethanol intake | ethanol intake (msP rats [1]; gabapentin alone 60.0 mg/kg OS): did not significantly modify ethanol intake

c1cnc2cc3c(cc2n1)[C@@H]1CNC[C@H]3C1 [varenicline]
Percent inhibition of smoking (heavy tobacco smokers; Patient 1, T=0 (baseline expressed as 100%)): 100% | Percent inhibition of smoking (heavy tobacco smokers; Patient 1, T=2 weeks of treatment): 34% | Percent inhibition of smoking (heavy tobacco smokers; Patient 1, T=4 weeks of treatment): 46% | Percent inhibition of smoking (heavy tobacco smokers; Patient 1, T=6 weeks of treatment): 61% | Percent inhibition of smoking (heavy tobacco smokers; Patient 1, T=8 weeks of treatment): 80% | Percent inhibition of smoking (heavy tobacco smokers; Patient 1, T=10 weeks of treatment): 93% | Percent inhibition of smoking (heavy tobacco smokers; Patient 2, T=0 (baseline expressed as 100%)): 100% | Percent inhibition of smoking (heavy tobacco smokers; Patient 2, T=2 weeks of treatment): 22% | Percent inhibition of smoking (heavy tobacco smokers; Patient 2, T=4 weeks of treatment): 47% | Percent inhibition of smoking (heavy tobacco smokers; Patient 2, T=6 weeks of treatment): 63% | Percent inhibition of smoking (heavy tobacco smokers; Patient 2, T=8 weeks of treatment): 87% | Percent inhibition of smoking (heavy tobacco smokers; Patient 2, T=10 weeks of treatment): 100% | Percent inhibition of smoking (heavy tobacco smokers; Patient 3, T=0 (baseline expressed as 100%)): 100% | Percent inhibition of smoking (heavy tobacco smokers; Patient 3, T=2 weeks of treatment): 38% | Percent inhibition of smoking (heavy tobacco smokers; Patient 3, T=4 weeks of treatment): 54% | Percent inhibition of smoking (heavy tobacco smokers; Patient 3, T=6 weeks of treatment): 62% | Percent inhibition of smoking (heavy tobacco smokers; Patient 3, T=8 weeks of treatment): 79% | Percent inhibition of smoking (heavy tobacco smokers; Patient 3, T=10 weeks of treatment): 94% | STAI score (anxiety) (heavy tobacco smokers): significantly reduced | subjects reaching complete abstinence (heavy tobacco smokers; pioglitazone 4 patients, varenicline 3 patients): one of them | percent of weekly smoked cigarettes: pioglitazone vs varenicline (heavy tobacco smokers; post hoc tests): no significant differences

CN1CC[C@]23c4c5ccc(O)c4O[C@H]2[C@@H](O)C=C[C@H]3[C@H]1C5 [morphine]
time to tail-flick on day 1, 3 and 5 (CD mice [5]): significantly increased the time to tail-flick | time to tail-flick on test days 7 and 9 (CD mice [5]): non significant difference from controls | analgesic effect (tail-immersion) on test day 9 (CD mice [6]): marginally significant | tail-immersion latency on day 1, 3, 5, and 7 (CD mice [6]): significantly increased the time to tail-flick

CN1CCN2c3ncccc3Cc3ccccc3C2C1 (centres unmarked) [mirtazapine]
ethanol intake in msP rats in a pilot study (msP rats [1]; mirtazapine 5.0 mg/kg OS): did not reduce ethanol intake | ethanol intake (msP rats [1]; mirtazapine alone 5.0 mg/kg OS, given twice): did not significantly modify ethanol intake

CC1(C)O[C@@H]2[C@@H](CO[C@@]3(COS(N)(=O)=O)OC(C)(C)O[C@@H]23)O1 [topiramate]
ethanol intake in msP rats in a pilot study (msP rats [1]; topiramate 30.0 mg/kg OS): did not reduce ethanol intake | ethanol intake (msP rats [1]; topiramate alone 30.0 mg/kg OS, given twice): did not significantly modify ethanol intake | ethanol intake at 2 hours (msP rats [1]; topiramate alone 30.0 mg/kg OS, p<0.05): significant reduction of ethanol intake at 2 hours

CNCCC(Oc1ccc(C(F)(F)F)cc1)c1ccccc1 (centres unmarked) [fluoxetine]
ethanol intake in msP rats in a pilot study (msP rats [1]; fluoxetine 3.0 mg/kg OS): did not reduce ethanol intake | ethanol intake (msP rats [1]; fluoxetine alone 3.0 mg/kg OS, given twice): did not significantly modify ethanol intake

CC(NC(C)(C)C)C(=O)c1cccc(Cl)c1 (centres unmarked) [bupropione]
STAI score (anxiety) (heavy tobacco smokers): not with bupropione

CCc1ccc(CCOc2ccc(CC3SC(=O)NC3=O)cc2)nc1 (centres unmarked) [pioglitazone]
Anxiety Score obtained using The STAY-Y1 scale (mean score values) (human patients; [7]): 59
